Experiments:
[1] = target: Adrenergic receptor alpha-1 (Rattus norvegicus) (UniProt P15823+P23944+P43140); experiment: Displacement of [3H]prazosin from Adrenergic alpha-1 receptor in rat cerebral cortex cells at 1 uM; format: cell-based
[2] = target: T1, Alpha-2A adrenergic receptor (Rattus norvegicus) (UniProt P22909); experiment: Displacement of [3H]RX 821002 from Adrenergic alpha-2a receptor in rat cerebral cortex cells at 1 uM; format: cell-based
T1 sequence (whole entry): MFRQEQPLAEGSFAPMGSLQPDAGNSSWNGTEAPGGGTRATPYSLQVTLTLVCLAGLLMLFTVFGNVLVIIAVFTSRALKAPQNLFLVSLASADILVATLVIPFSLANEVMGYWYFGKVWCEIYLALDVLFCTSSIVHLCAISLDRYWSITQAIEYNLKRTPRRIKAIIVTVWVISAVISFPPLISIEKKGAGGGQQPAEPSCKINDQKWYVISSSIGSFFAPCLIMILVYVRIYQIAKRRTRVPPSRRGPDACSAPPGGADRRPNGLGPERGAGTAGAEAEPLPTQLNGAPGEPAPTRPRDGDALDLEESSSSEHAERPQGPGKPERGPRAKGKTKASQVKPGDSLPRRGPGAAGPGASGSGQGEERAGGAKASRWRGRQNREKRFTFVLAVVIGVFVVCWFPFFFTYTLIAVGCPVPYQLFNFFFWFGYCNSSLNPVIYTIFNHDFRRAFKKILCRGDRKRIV

[3] = target: T2, 5-hydroxytryptamine receptor 1A (Homo sapiens) (UniProt P08908); experiment: Activity against 5HT1A receptor relative to 5-HT by Gi-[35S]GTP-gamma-S binding assay; format: functional
T2 sequence (whole entry): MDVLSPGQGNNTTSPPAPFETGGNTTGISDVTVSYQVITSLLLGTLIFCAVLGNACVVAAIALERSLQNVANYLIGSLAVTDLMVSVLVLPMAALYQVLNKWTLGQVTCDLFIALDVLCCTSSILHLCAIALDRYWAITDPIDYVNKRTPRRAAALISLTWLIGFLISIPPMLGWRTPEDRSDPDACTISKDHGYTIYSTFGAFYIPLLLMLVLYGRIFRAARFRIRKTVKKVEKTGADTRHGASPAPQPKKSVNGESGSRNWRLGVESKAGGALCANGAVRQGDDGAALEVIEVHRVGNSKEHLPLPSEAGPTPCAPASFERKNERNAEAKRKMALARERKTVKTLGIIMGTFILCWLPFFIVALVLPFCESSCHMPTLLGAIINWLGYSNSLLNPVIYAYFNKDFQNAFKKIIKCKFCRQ

[4] = Half life in Beagle dog at 3 mg/kg, po; format: ADME, organism-based, Canis lupus familiaris; set-up: dose 3 mg/kg, route oral; details: in vivo
[5] = Cmax in Beagle dog at 3 mg/kg, po; format: ADME, organism-based, Canis lupus familiaris; set-up: dose 3 mg/kg, route oral; details: in vivo
[6] = Toxicity in po dosed Sprague-Dawley rat; format: organism-based; details: in vivo
[7] = Toxicity in po dosed Beagle dog; format: organism-based, Canis lupus familiaris; details: in vivo
[8] = Elimination half life in human; format: ADME, organism-based; details: in vivo
[9] = Cmax in Sprague-Dawley rat at 3 mg/kg, po; format: ADME, organism-based; set-up: dose 3 mg/kg, route oral; details: in vivo
[10] = Half life in Sprague-Dawley rat at 3 mg/kg, po; format: ADME, organism-based; set-up: dose 3 mg/kg, route oral; details: in vivo
D(2) dopamine receptor = D(2) dopamine receptor (Homo sapiens, UniProt P14416); experiment: Binding affinity to D2 receptor by radioligand binding assay
[11] = target: Dopamine D2 receptor and serotonin 1a receptor (Homo sapiens) (UniProt P14416+P08908); experiment: Selectivity for D2 receptor over 5HT1A receptor; format: protein assay
[12] = Selectivity for adrenergic alpha-1 receptor over 5HT1A receptor
[13] = target: T3, 5-hydroxytryptamine receptor 1A (Homo sapiens, UniProt P08908); experiment: Displacement of [3H]8-OH-DPAT from human 5HT1A receptor in HEK293 cells
T3 sequence (P08908 whole entry): T2 sequence (whole entry)

[14] = target: T4, Adrenergic receptor alpha-1 (Rattus norvegicus, UniProt P15823+P23944+P43140); experiment: Displacement of [3H]prazosin from adrenergic alpha-1 receptor in rat cerebral cortex cells; format: cell-based
T4 sequence (P15823 whole entry): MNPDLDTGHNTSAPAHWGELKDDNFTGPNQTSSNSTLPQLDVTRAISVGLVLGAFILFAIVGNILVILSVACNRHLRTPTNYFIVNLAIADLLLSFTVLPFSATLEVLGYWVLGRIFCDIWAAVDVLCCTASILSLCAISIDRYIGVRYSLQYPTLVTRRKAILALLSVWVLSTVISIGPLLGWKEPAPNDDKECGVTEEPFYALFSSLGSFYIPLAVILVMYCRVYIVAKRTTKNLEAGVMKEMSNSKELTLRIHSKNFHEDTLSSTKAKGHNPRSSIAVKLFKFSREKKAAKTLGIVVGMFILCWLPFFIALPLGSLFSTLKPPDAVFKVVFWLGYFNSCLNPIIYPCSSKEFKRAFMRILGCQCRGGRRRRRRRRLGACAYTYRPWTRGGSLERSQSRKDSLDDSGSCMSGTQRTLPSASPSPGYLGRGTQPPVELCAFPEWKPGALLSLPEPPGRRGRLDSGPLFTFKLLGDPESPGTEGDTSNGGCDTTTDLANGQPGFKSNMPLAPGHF
T4 sequence (P23944 whole entry): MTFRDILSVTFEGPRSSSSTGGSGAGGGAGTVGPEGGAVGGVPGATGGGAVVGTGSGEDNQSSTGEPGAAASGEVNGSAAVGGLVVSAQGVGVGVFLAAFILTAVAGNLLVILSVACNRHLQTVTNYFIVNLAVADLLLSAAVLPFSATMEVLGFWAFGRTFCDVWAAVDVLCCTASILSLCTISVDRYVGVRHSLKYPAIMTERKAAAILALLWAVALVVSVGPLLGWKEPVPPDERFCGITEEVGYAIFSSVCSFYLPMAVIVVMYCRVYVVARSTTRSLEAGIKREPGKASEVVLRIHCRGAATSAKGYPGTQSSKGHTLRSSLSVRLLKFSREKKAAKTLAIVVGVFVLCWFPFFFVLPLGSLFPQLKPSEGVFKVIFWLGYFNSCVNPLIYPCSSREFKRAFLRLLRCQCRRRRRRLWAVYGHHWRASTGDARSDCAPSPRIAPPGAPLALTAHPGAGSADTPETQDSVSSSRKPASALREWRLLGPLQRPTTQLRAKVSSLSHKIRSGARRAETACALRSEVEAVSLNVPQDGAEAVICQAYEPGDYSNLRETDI
T4 sequence (P43140 whole entry): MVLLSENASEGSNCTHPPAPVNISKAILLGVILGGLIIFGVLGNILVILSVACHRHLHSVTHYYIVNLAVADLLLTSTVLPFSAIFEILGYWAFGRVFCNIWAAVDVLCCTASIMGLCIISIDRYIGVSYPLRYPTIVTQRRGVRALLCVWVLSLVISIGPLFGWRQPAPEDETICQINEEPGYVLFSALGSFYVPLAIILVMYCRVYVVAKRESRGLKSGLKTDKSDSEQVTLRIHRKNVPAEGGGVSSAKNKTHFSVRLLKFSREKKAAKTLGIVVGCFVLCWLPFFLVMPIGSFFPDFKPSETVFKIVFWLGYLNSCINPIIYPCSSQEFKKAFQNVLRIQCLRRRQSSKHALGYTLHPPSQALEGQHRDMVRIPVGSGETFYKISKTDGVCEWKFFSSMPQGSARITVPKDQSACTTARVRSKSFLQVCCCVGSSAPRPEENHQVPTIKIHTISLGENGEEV

D(2) dopamine receptor, sequence (P14416 whole entry): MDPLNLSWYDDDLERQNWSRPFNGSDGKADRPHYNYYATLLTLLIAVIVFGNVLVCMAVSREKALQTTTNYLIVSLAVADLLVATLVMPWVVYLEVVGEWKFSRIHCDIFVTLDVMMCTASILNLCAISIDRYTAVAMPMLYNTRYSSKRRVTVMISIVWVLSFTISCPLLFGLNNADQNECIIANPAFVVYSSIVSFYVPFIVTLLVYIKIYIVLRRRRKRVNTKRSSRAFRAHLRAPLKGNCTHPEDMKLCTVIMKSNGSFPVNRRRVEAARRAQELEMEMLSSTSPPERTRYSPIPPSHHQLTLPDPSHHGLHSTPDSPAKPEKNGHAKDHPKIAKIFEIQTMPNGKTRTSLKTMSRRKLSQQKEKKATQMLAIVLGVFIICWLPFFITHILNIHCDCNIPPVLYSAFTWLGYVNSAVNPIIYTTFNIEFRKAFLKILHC
Dopamine D2 receptor and serotonin 1a receptor (Homo sapiens), sequence (P14416 whole entry, looked up, one chain of several): as the sequence (P14416 whole entry) above

Structure (SMILES)	Activity [1] [%]	Activity [2] [%]	half-life [8] [h]	also measured
CC(=O)Nc1cccc(N2CCN(CCCCNS(=O)(=O)C3CCCCC3)CC2)c1	< 10	< 10	–	–
O=C(Nc1cccc(N2CCN(CCCCNS(=O)(=O)CC3CCCCC3)CC2)c1)C1CC1	10	< 10	–	–
O=C1CC2(CCCC2)CC(=O)N1CCCCN1CCN(c2ncccn2)CC1 [BUSPIRONE]	–	–	2	Activity [3]: 50%; half-life [4]: 1 h; Cmax [5]: 146 ng/mL; LD50 [6]: 196 mg/kg; LD50 [7]: 586 mg/kg; Cmax [9]: 4 ng/mL; half-life [10]: 1 h
CC1(C)CC(=O)N(CCCCN2CCN(c3ncccn3)CC2)C(=O)C1 [GEPIRONE]	–	–	6	Activity [3]: 80%; Ki (D(2) dopamine receptor): 58 nM
O=C1c2ccccc2S(=O)(=O)N1CCCCN1CCN(c2ncccn2)CC1 [IPSAPIRONE]	–	–	2	Ratio Ki [11]: 18; Ratio Ki [12]: 38; Ki [13]: 6 nM; Ki (D(2) dopamine receptor): 110 nM; Ki [14]: 229 nM
O=C1CCC(=O)N1C[C@H]1CC[C@H]2CN(c3ncccn3)CCN2C1 [SUNEPITRON]	–	–	2	Ratio Ki [12]: 0.4; Ki [13]: 92 nM; Ki [14]: 35 nM

More lines, main results first:

Activity [1] [%]	Activity [2] [%]	Structure (SMILES)	half-life [8] [h]	also measured
39	< 10	CC(=O)Nc1cccc(N2CCN(CCCCNS(=O)(=O)c3ccc(F)cc3)CC2)c1	–	–
12	12	CCCC(=O)Nc1cccc(N2CCN(CCCCNS(=O)(=O)c3ccc(C)cc3)CC2)c1	–	–
47	14	CCS(=O)(=O)Nc1cccc(N2CCN(CCCCNS(=O)(=O)c3ccc(C)cc3)CC2)c1	–	–
0	11	Cc1ccc(S(=O)(=O)NCCCCN2CCN(c3cccc(NC(=O)C(C)(C)C)c3)CC2)cc1	–	–
51	21	Cc1ccc(S(=O)(=O)NCCCCN2CCN(c3cccc(NS(C)(=O)=O)c3)CC2)cc1	–	–
98	90	Cc1ccc(S(=O)(=O)NCCCCN2CCN(c3ccccc3)CC2)cc1	–	–
